For one compound, Activity results are on record in ChEMBL document CHEMBL3286303, “Synthesis and in vitro antiproliferative evaluation of novel N-alkylated 6-isobutyl- and propyl pyrimidine derivatives” (Bioorg Med Chem Lett, 2014).

For data set [1], the system named is K562. Briefly: Cell cycle arrest in human K562 cells as assessed as accumulation at S phase at 1 uM after 24 hrs by propidium iodide staining-based flow cytometric analysis relative to control. The data set is classed as functional. (A flow cytometer gives signals particle by particle.)
The subject of data set [2] is K562. Briefly: Cell cycle arrest in human K562 cells as assessed as accumulation at G1 phase at 0.1 uM after 48 hrs by propidium iodide staining-based flow cytometric analysis relative to control. The class given is functional.
The test system of data set [3] is K562. Briefly: Cell cycle arrest in human K562 cells as assessed as accumulation at sub-G1 phase at 0.5 uM after 48 hrs by propidium iodide staining-based flow cytometric analysis relative to control. The data set is classed as functional.
Data set [4] relates to SW-620. Briefly: Cell cycle arrest in human SW620 cells as assessed as accumulation at S phase at 0.1 uM after 24 hrs by propidium iodide staining-based flow cytometric analysis relative to control. The data set is classed as functional.
Data set [5] has as its system SW-620. Briefly: Cell cycle arrest in human SW620 cells as assessed as accumulation at sub-G1 phase at 0.1 uM after 48 hrs by propidium iodide staining-based flow cytometric analysis relative to control. The data set is classed as functional.
The subject of data set [6] is WI-38. Briefly: Cell cycle arrest in human WI38 cells as assessed as accumulation at G1 phase at 1 uM after 24 hrs by propidium iodide staining-based flow cytometric analysis relative to control. Particulars: wi-38, 24 h.
The subject of data set [7] is MCF7. Briefly: Cell cycle arrest in human MCF7 cells as assessed as accumulation at sub-G1 phase at 0.1 uM after 24 hrs by propidium iodide staining-based flow cytometric analysis relative to control. The class given is functional.
Data set [8] relates to MCF7. Briefly: Cell cycle arrest in human MCF7 cells as assessed as accumulation at G2/M phase at 0.1 uM after 24 hrs by propidium iodide staining-based flow cytometric analysis relative to control. The data set is classed as functional.
Data set [9] has as its system MCF7. Briefly: Cell cycle arrest in human MCF7 cells as assessed as accumulation at G2/M phase at 1 uM after 48 hrs by propidium iodide staining-based flow cytometric analysis relative to control. The data set is classed as functional.
The subject of data set [10] is K562. Briefly: Cell cycle arrest in human K562 cells as assessed as accumulation at G2/M phase at 0.1 uM after 24 hrs by propidium iodide staining-based flow cytometric analysis relative to control. The data set is classed as functional.

For the compound `COCn1c(CC(COCc2ccccc2)COCc2ccccc2)c(C)c(=O)n(COC)c1=O`, the Activity in data set [1] is listed as 26.6%; in data set [2], 49.8%; in [3], 15%; in data set [4] it was 19.6%; in data set [5], 6.8%; in data set [6] it was 70.1%. The Activity in data set [7] is reported as 55.5%; in data set [8], 7.1%; in data set [9], 3.8%; in data set [10], 22.2%.
